Source: patent publication US20170058314A1, “NOVEL METHODOLOGY FOR IDENTIFYING ANTI-PERSISTER ACTIVITY AND ANTIMICROBIAL SUSCEPTIBILITY FOR BORRELIA BURGDORFERI AND OTHER BACTERIA” (priority 2014, published 2017)

Key:
[1] = tested on: round body form of B. burgdorferi; test: SYBR Green I/PI assay on amoxicillin-induced round body form
[2] = tested on: stationary phase B. burgdorferi persisters (strain B31); test: NCI compound library screen, SYBR Green I/PI assay (plate reader)
[3] = tested on: B. burgdorferi (growing, strain B31); test: MIC determination, standard microdilution method; format: cell-based, Borrelia burgdorferi; conditions: Borreliella burgdorferi; growing B. burgdorferi; read-out: MIC
[4] = tested on: round body form of B. burgdorferi; test: Subculture test of drug-treated round body form
Method: For induction of round body form of B. burgdorferi, B. burgdorferi spirochetes (1×10^5 spirochetes/mL) were cultured in BKS-H medium for 6 days without shaking. After the 6-day incubation, amoxicillin at a final concentration of 50 μg/mL was added to the culture for round body form induction. After 72 h induction at 33° C., the round body forms of B. burgdorferi were examined by the microscopy. The round body cells (100 μL) were transferred to 96-well tissue culture microplates for evaluation of the effects of antibiotic treatment.

[5] = tested on: stationary phase B. burgdorferi; test: Subculture test of drug-treated stationary phase B. burgdorferi; format: cell-based, Borrelia burgdorferi; conditions: 10 μg/mL
Method: Seven-day-old B. burgdorferi culture (1×10^7 spirochetes/mL) (500 μL) was treated with drugs or drug combinations in Eppendorf tubes. After incubation at 33° C. for 7 days without shaking, the cells were collected by centrifugation and rinsed with 1 mL fresh BSK-H medium followed by resuspension in 500 μL fresh BSK-H medium without antibiotics. Then 50 μL of cell suspension was transferred to 1 mL fresh BSK-H medium for subculture at 33° C. for 2 weeks. Cell proliferation was assessed using SYBR Green I/PI assay and bacterial counting chamber (Hausser Scientific Partnership) by microscopy as described above.

[6] = tested on: B. burgdorferi log and stationary phase cultures; test: epi-fluorescence microscope counting after antibiotic exposure (persister frequency, planktonic forms); format: cell-based, Borrelia burgdorferi
[7] = tested on: log phase and stationary phase B. burgdorferi culture; test: Antibiotic exposure assay, SYBR Green I/PI (drugs alone and combinations)
Outline: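 Stationary-phase or round-body B. burgdorferi exposed 7 days at 33 °C to drugs alone or combined at 10 μg/mL each (single-compound screen: 50 μM final). Viability by SYBR Green I/PI, ex 485, em 535/635 nm; percent live from regression of green/red ratio, corrected by direct microscopy counting.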

[8] = 10 μg/mL drugs or combinations, 7 days
[9] = 10 μg/mL, 7 days treatment, then subculture
[10] = 7 days treatment, then subculture

In the case of `C[C@H]1c2cccc(O)c2C(=O)C2=C(O)[C@]3(O)C(=O)C(C(N)=O)=C(O)[C@@H](N(C)C)[C@@H]3[C@@H](O)[C@@H]21` [Doxycycline], the “Live cell %, round body form” value [1, 8] is reported as 49%, the viability at 50 µM ([1]; Borreliella burgdorferi, 168 h, read-out: Residual viable cells (SYBR Green I/PI assay)) is reported as 42% and the “Ratios of green/red fluorescence, Primary screening” value ([1]; round body form, 50 μM, 7 days) is reported as 6.34. For the same compound, the “Ratios of green/red fluorescence, Rescreening (first column)” value ([1]; round body form, 50 μM, 7 days) was 6.39, the “Ratios of green/red fluorescence, Rescreening (second column)” value ([1]; round body form, 50 μM, 7 days) was 6.67 and the “Residual viable cells (SYBR Green I/PI assay)” value ([2]; 50 μM, seven day old stationary phase culture, 7 days) was 68%. It also gave a viability at 20 µM ([2]; Borreliella burgdorferi, 168 h, read-out: Residual viable cells (%) 20 μM (SYBR Green I/PI assay), 20 μM, seven day old stationary phase, 7 days) of 76%, a viability at 50 µM ([2]; Borreliella burgdorferi, 168 h, read-out: Residual viable cells (SYBR Green I/PI assay), 50 μM, seven day old stationary phase culture, 7 days) of 75% and an MIC [3] of at most 0.25 µg/mL. The “Spirochetes number After 10 day subculture” value [4, 9] was 1 × 10^6, the “Spirochetes number After 20 day subculture” value [4, 9] was “about 5×10^6” and the “Spirochetes number After 20 day subculture” value ([4]; 10 μg/mL, 7 days treatment, then subculture, listed as Dox) was 5 × 10^6. The viability at 10 µg/mL ([4]; Borreliella burgdorferi, 168 h, read-out: Residual viable cells) was 44%, the “G/R ratio immediately after treatment” value ([5]; 7 days) was 6.71 and the “G/R ratio after 7 day subculture” value [5, 10] was 6.23. The “G/R ratio after 15 day subculture” value [5, 10] was 6.89, the “Spirochetes after 7 day subculture (microscope counting)” value [5, 10] was 9 × 10^5 and the “Spirochetes after 15 day subculture (microscope counting)” value [5, 10] was ~5×10^6. For the same compound, the “Spirochetes after 15 day subculture (microscope counting)” value ([5]; 7 days treatment, then subculture, listed as Dox) was 4 × 10^6, the viability at 10 µg/mL ([5]; Borreliella burgdorferi, 168 h, seven-day-old culture, 7 days, read-out: Residual viable cells (epifluorescence microscope counting)) was 67% and the “persister frequency (percentage of live cells after antibiotic treatment, in brackets)” value ([6]; 3-day log phase culture) was “(6.4%)”. The “persister frequency (in brackets)” value ([6]; 7-day stationary phase culture) was “(24%)”, the “persister frequency (in brackets)” value ([6]; 10-day stationary phase culture) was “(~25%)” and the “planktonic form cells remaining green (live)” value ([6]; 10-day-old stationary phase culture, 10 μg/mL, 7 days, FIG. 17A) was “about 71%”. For the same compound, the “Live cell %, ten day old stationary phase culture (in brackets)” value [7, 8] was 72% and the viability at 10 µg/mL ([7]; Borreliella burgdorferi, 168 h, read-out: Live Cell % (residual viable B. burgdorferi), ten-day-old stationary phase culture enriched with micro-colonies, 10 μg/mL each drug, 7 days) was 72%.
